# Assay results: patent US9834550B2, “Pyridopyrimidinone compounds for modulating the catalytic activity of histone lysine demethylases (KDMs)” (Dong-A Socio Holdings Co., Ltd., priority 2014, dated 2017)
# Target: T1, Recombinant human JARID1B/KDM5B (Homo sapiens, UniProt Q9UGL1)
# T1 construct: purchased Active Motif 31432; host or cells: Sf9 insect cells
# Assay: LANCE Ultra TR-FRET demethylase assay with FLAG-tagged JARID1B
# Type: biochemical
# Conditions: 100 nM compound; 500 nM biotinylated H3K4me3 peptide substrate
# From the text: FLAG-tagged JARID1B (also known as KDM5B) protein was screened against more than 170 compounds. For this compound screening, LANCE Ultra time-resolved fluorescence resonance energy transfer (TR-FRET) assay was employed using an europoium (Eu)-labeled antibody that can specifically recognize mono- or dimethylated peptides (H3K4me2/1) and ULight-streptavidin (ULight-SA), a small molecule fluorescent dye. When irradiated at 340 nm, the energy from the Eu donor is transferred to the ULight acceptor dye which, in turn, emits light primarily at 665 nm. The ratio between the intensity of primary emission at 665 nm and that of secondary emission at 590 nm was used to quantify the level of lysine methylation. As JARID1B removes more methyl moieties from tri-methylated substrate peptides (H3K4me3), the ratio increases until the enzyme reaction is terminated. In case, therefore, the compounds disrupt the enzymatic activity completely, the ratio becomes equal to a background value.
# Recombinant human JARID1B/KDM5B (accession number NP_006609) of molecular weight 179.9 KDa was expressed in Sf9 insect cells and contains an N-terminal FLAG tag. The enzyme was obtained from Active Motif (Catalog No. 31432). The tri-methylated histone substrate peptide of purity greater than 95% was a synthetic peptide in which the first 21 amino acids correspond to the human histone H3 sequence with three extra amino acids and a biotin motif (GGK-biotin) linked to the C-terminus [sequence: ART-K (Me3)-QTARKSTGGKAPRKQLA-GGK-biotin-OH], (AnaSpec, Fremont, Calif. Catalog. No. ANA-1413). The reference inhibitory compound tranylcypromine (or trans-2-phenylcyclopropylamine hydrochloride, also known as, 2-PCPA) was purchased from Sigma (St. Louis, Mo. Cat. no. P8511). ULight-labeled streptavidin (ULight-SA, Catalog no. TRF0102), Eu-W1024-labeled anti-methyl-Histone H3 Lysine 4 (H3K4me1-2) Antibody (Catalog no. TRF0402), and LANCE detection buffer 10× (Catalog no. CR97-100) were obtained from PerkinElmer (Montreal, Quebec, Canada). The TR-FRET experiments were carried out in white, low-volume 384-wellplates purchased from PerkinElmer (ProxiPlate-384 Plus, Catalog no. 6008280).
# The TR-FRET signal was measured in the presence both of the bio-H3K4me3 peptide and FLAG-JARID1B by detecting any H3K4me2/1 peptide produced in the assay system. Assays using only the bio-H3K4me2 peptide were served as a positive control. Robust enzymatic progressions were observed by using JARID1B at concentrations ranging from 10 to 30 nM. In a typical TR-FRET experiment, JARID1B was pre-incubated with or without 20 uM, 1 uM, or 0.1 uM of test-compounds (containing 1% DMSO final) for […]. The enzymatic reactions were initiated by the addition of 500 nM biotinylated H3K4me3 peptide substrate plus 500 uM of 2-OG, 25 uM Fe(II) and 2 mM ascorbate. The reaction buffer also contained 50 mM Hepes (pH7.5), 0.01% (v/v) Tween 20, and 50 mM NaCl. The reaction mixture was incubated for […] at room temperature before reading on an EnVision plate reader (PerkinElmer, Waltham, Mass.).
# T1 sequence (Q9UGL1 whole entry): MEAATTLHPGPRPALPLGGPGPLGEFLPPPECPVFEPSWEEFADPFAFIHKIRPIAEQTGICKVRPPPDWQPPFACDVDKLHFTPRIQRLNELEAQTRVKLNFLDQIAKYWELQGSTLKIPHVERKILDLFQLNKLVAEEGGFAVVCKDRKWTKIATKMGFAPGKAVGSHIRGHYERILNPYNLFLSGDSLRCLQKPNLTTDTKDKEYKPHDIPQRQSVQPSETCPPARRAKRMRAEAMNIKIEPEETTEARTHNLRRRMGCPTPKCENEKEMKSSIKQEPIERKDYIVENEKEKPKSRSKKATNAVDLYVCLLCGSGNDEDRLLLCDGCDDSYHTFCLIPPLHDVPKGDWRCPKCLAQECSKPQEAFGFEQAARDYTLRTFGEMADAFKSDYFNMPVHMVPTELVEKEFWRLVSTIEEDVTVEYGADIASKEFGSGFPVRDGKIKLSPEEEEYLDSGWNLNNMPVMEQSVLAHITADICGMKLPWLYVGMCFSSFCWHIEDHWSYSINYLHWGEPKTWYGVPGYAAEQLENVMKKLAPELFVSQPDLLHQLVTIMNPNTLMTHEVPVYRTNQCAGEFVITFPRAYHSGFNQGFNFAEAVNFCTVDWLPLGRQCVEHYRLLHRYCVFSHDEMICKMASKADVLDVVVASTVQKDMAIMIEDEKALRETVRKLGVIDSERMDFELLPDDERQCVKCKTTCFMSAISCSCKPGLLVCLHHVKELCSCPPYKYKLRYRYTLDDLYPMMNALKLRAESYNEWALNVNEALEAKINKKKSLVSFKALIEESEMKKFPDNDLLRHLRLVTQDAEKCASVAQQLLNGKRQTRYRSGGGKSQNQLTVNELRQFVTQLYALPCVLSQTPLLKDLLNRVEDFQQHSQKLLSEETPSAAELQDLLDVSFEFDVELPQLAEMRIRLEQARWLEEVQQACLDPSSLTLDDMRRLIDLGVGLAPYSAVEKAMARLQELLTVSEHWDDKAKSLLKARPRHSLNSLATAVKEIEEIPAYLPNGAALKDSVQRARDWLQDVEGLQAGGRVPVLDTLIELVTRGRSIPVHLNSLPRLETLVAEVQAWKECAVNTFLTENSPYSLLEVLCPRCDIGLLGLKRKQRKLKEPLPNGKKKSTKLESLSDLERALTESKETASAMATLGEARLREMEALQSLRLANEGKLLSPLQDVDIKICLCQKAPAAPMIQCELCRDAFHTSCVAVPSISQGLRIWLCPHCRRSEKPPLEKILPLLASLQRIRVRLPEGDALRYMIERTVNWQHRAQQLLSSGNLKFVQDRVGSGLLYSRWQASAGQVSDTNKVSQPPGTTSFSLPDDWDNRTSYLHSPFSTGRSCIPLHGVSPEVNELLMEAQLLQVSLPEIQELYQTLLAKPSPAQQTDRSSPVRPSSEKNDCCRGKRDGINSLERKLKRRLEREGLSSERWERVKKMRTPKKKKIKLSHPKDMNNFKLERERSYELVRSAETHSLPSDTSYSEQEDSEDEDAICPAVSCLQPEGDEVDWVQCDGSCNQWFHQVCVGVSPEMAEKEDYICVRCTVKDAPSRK
row,inhibition at 0.1 µM [%],SMILES
1,> 50,"O=C(CNCc1nccc2c(=O)[nH]c(COc3ccc(F)c(Cl)c3)nc12)N[C@H]1CC[C@H](N2CCCC2)O1 (relative stereo) [Example 233, 2-(((2-((3-chloro-4-fluorophenoxy)methyl)-4-oxo-3,4-dihydropyrido[3,4-d]pyrimidin-8-yl)methyl)amino)-N-(trans-5-(pyrrolidin-1-yl)tetrahydrofuran-2-yl)acetamide]"
2,20 to 50,"CN1CCC(N2CCC(CNCc3nccc4c(=O)[nH]cnc34)CC2)CC1 [Example 97, 8-((((1′-methyl-[1,4′-bipiperidin]-4-yl)methyl)amino)methyl)pyrido[3,4-d]pyrimidin-4(3H)-one]"
3,< 20,"O=c1[nH]cnc2c(CNC[C@@H]3CCCNC3)nccc12 [Example 98, (R)-8-(((piperidin-3-ylmethyl)amino)methyl)pyrido[3,4-d]pyrimidin-4(3H)-one]"
4,20 to 50,"O=c1[nH]cnc2c(CNC[C@H]3CCCNC3)nccc12 [Example 99, (S)-8-(((piperidin-3-ylmethyl)amino)methyl)pyrido[3,4-d]pyrimidin-4(3H)-one]"
5,> 50,"CN1CCCC(CNCc2nccc3c(=O)[nH]cnc23)C1 (stereo not drawn) [Example 100, 8-((((1-methylpiperidin-3-yl)methyl)amino)methyl)pyrido[3,4-d]pyrimidin-4(3H)-one]"
6,20 to 50,"O=c1[nH]cnc2c(CNCC3CCCN(Cc4ccccc4)C3)nccc12 (stereo not drawn) [Example 101, 8-((((1-benzylpiperidin-3-yl)methyl)amino)methyl)pyrido[3,4-d]pyrimidin-4(3H)-one]"
7,> 50,"O=c1[nH]c(COc2ccccc2Cl)nc2c(CNCC3CCN(Cc4ccccc4)CC3)nccc12 [Example 105, 8-((((1-benzylpiperidin-4-yl)methyl)amino)methyl)-2-((2-chlorophenoxy)methyl)pyrido[3,4-d]pyrimidin-4(3H)-one]"
8,> 50,"O=c1[nH]c(COc2cccc(Cl)c2)nc2c(CNCC3CCN(Cc4ccccc4)CC3)nccc12 [Example 106, 8-((((1-benzylpiperidin-4-yl)methyl)amino)methyl)-2-((3-chlorophenoxy)methyl)pyrido[3,4-d]pyrimidin-4(3H)-one]"
9,> 50,"O=c1[nH]c(COc2ccc(Cl)cc2)nc2c(CNCC3CCN(Cc4ccccc4)CC3)nccc12 [Example 107, 8-((((1-benzylpiperidin-4-yl)methyl)amino)methyl)-2-((4-chlorophenoxy)methyl)pyrido[3,4-d]pyrimidin-4(3H)-one]"
10,> 50,"O=c1[nH]c(COc2ccc(Br)cc2)nc2c(CNCC3CCN(Cc4ccccc4)CC3)nccc12 [Example 108, 8-((((1-benzylpiperidin-4-yl)methyl)amino)methyl)-2-((4-bromophenoxy)methyl)pyrido[3,4-d]pyrimidin-4(3H)-one]"
11,20 to 50,"O=c1[nH]c(COc2cccnc2)nc2c(CNCC3CCN(Cc4ccccc4)CC3)nccc12 [Example 109, 8-((((1-benzylpiperidin-4-yl)methyl)amino)methyl)-2-((pyridin-3-yloxy)methyl)pyrido[3,4-d]pyrimidin-4(3H)-one]"
12,> 50,"O=c1[nH]c(COc2ccncc2)nc2c(CNCC3CCN(Cc4ccccc4)CC3)nccc12 [Example 110, 8-((((1-benzylpiperidin-4-yl)methyl)amino)methyl)-2-((pyridin-4-yloxy)methyl)pyrido[3,4-d]pyrimidin-4(3H)-one]"
13,> 50,"O=c1[nH]c(COc2ccc(Cc3ccccc3)cc2)nc2c(CNCC3CCN(Cc4ccccc4)CC3)nccc12 [Example 111, 2-((4-benzylphenoxy)methyl)-8-((((1-benzylpiperidin-4-yl)methyl)amino)methyl)pyrido[3,4-d]pyrimidin-4(3H)-one]"
14,20 to 50,"O=c1[nH]c(COc2cc(C(F)(F)F)ccc2Cl)nc2c(CNCC3CCNCC3)nccc12 [Example 112, 2-((2-chloro-5-(trifluoromethyl)phenoxy)methyl)-8-(((piperidin-4-ylmethyl)amino)methyl)pyrido[3,4-d]pyrimidin-4(3H)-one]"
15,20 to 50,"O=c1[nH]c(COc2cccc(Cl)c2Cl)nc2c(CNCC3CCNCC3)nccc12 [Example 113, 2-((2,3-dichlorophenoxy)methyl)-8-(((piperidin-4-ylmethyl)amino)methyl)pyrido[3,4-d]pyrimidin-4(3H)-one]"

# Further lines, the compound ahead of its results:
row,SMILES,inhibition at 0.1 µM [%]
1,"COc1cc(OCc2nc3cnccc3c(=O)[nH]2)cc(OC)c1OC [Example 39, 2-((3,4,5-trimethoxyphenoxy)methyl)pyrido[3,4-d]pyrimidin-4(3H)-one]",< 20
2,"O=C(NCCN1CCOCC1)c1cccc(OCc2nc3cnccc3c(=O)[nH]2)c1 [Example 40, N-(2-morpholinoethyl)-3-((4-oxo-3,4-dihydropyrido[3,4-d]pyrimidin-2-yl)methoxy)benzamide]",< 20
3,"O=c1[nH]c(COc2cccc(CNCc3ccccc3)c2)nc2cnccc12 [Example 42, 2-((3-((benzylamino)methyl)phenoxy)methyl)pyrido[3,4-d]pyrimidin-4(3H)-one]",< 20
4,"CCCOC1CCN(Cc2cccc(OCc3nc4cnccc4c(=O)[nH]3)c2)CC1 [Example 43, 2-((3-((4-propoxypiperidin-1-yl)methyl)phenoxy)methyl)pyrido[3,4-d]pyrimidin-4(3H)-one]",20 to 50
5,"O=c1[nH]c(COc2cccc(CNC3CCOCC3)c2)nc2cnccc12 [Example 44, 2-((3-(((tetrahydro-2H-pyran-4-yl)amino)methyl)phenoxy)methyl)pyrido[3,4-d]pyrimidin-4(3H)-one]",< 20
6,"O=c1[nH]c(COc2cccc(CNCCN3CCOCC3)c2)nc2cnccc12 [Example 45, 2-((3-(((2-morpholinoethyl)amino)methyl)phenoxy)methyl)pyrido[3,4-d]pyrimidin-4(3H)-one]",< 20
7,"O=C(NCCC1CCNCC1)c1cc(OCc2nc3cnccc3c(=O)[nH]2)ccc1Cl [Example 46, 2-chloro-5-((4-oxo-3,4-dihydropyrido[3,4-d]pyrimidin-2-yl)methoxy)-N-(2-(piperidin-4-yl)ethyl)benzamide]",20 to 50
8,"O=c1[nH]cnc2c(CNCC3CCCCC3)nccc12 [Example 85, 8-(((cyclohexylmethyl)amino)methyl)pyrido[3,4-d]pyrimidin-4(3H)-one]",< 20
9,"CCN(CC)CCCCNCc1nccc2c(=O)[nH]cnc12 [Example 86, 8-(((4-(diethylamino)butyl)amino)methyl)pyrido[3,4-d]pyrimidin-4(3H)-one]",< 20
10,"O=C1CCCN1CCCNCc1nccc2c(=O)[nH]cnc12 [Example 88, 8-(((3-(2-oxopyrrolidin-1-yl)propyl)amino)methyl)pyrido[3,4-d]pyrimidin-4(3H)-one]",< 20
11,"CN1CCC(CNCc2nccc3c(=O)[nH]cnc23)C1 (stereo not drawn) [Example 92, 8-((((1-methylpyrrolidin-3-yl)methyl)amino)methyl)pyrido[3,4-d]pyrimidin-4(3H)-one]",20 to 50
12,"O=c1[nH]cnc2c(CNCC3CCNCC3)nccc12 [Example 93, 8-(((piperidin-4-ylmethyl)amino)methyl)pyrido[3,4-d]pyrimidin-4(3H)-one]",20 to 50
13,"CC(NCc1nccc2c(=O)[nH]cnc12)C1CCNCC1 (stereo not drawn) [Example 94, 8-(((1-(piperidin-4-yl)ethyl)amino)methyl)pyrido[3,4-c]pyrimidin-4(3H)-one]",< 20
14,"CN1CCC(CNCc2nccc3c(=O)[nH]cnc23)CC1 [Example 95, 8-((((1-methylpiperidin-4-yl)methyl)amino)methyl)pyrido[3,4-d]pyrimidin-4(3H)-one]",20 to 50
15,"O=c1[nH]cnc2c(CNCC3CCN(Cc4ccccc4)CC3)nccc12 [Example 96, 8-((((1-benzylpiperidin-4-yl)methyl)amino)methyl)pyrido[3,4-d]pyrimidin-4(3H)-one]",20 to 50
